We go through three compounds from patent US12403112B2, “Agent for preventing, ameliorating, or treating periodontal disease” (WAKUNAGA PHARMACEUTICAL CO., LTD., priority 2019, dated 2025).

What all share (format): cell-based
Experiment [1] has as its system hBD3 gene in human gingival epithelial Ca9-22 cells. In words: Effect of promoting expression of hBD3 gene (quantitative real-time PCR). As for the experimental part:
(§1) Test solutions for evaluating the biological activities were prepared as follows. In evaluating the biological activities, all test solutions were prepared at the time of use. • (a) Approximately 1 mg of SAC and S1PC (cis:trans=15:85) were each precisely weighed and dissolved in 0.6 mL of purified water (10 mM). This solution was used as a stock solution and diluted appropriately to be subjected to the test. • (b) SAMC was dissolved in a culture medium for cell culture (containing 10% bovine serum albumin, […] penicillin, and 100 μg/mL streptomycin) (1 mM). This solution was used as a stock solution and diluted to be subjected to the test. (2) Cells for Evaluation Test
Test cells (human gingival epithelial Ca9-22 cells) were purchased from the National Institute of Biomedical Innovation, Health and Nutrition. Immediately after purchasing, the culturing was initiated (5% CO2, 37° C.) Subculturing was carried out two or three times per week.
The Ca9-22 cells were prepared to 1×10^5 cells/mL in a 10% serum-containing medium, seeded in a 12-well plate at 1 mL respectively, and cultured for 24-48 hours. Assay was carried out when the percentage of cells in each well reached nearly 100%. In the presence or absence of heat-sterilized Porphyromonas gingivalis (HKPG), a reagent was added and the culturing was continued for 24 hours. After completion of culturing, the culture supernatant was removed and […] was added, followed by treatment at room temperature for 5 minutes. RIPA buffer was collected from each well into tubes and chloroform was added (40 μL/tube), followed by treatment at room temperature for 2-3 minutes. After centrifugation (13,000 g, 5 min, 4° C.), the supernatant was transferred to a new tube and 2-propanol was added thereto (80 μL/tube), followed by treatment at room temperature for 10 minutes. After centrifugation (13,000 g, 10 min, 4° C.), the supernatant was removed, and 75% ethanol was added to the precipitate (200 μL/tube), and further centrifugation (13,000 g, 10 min, 4° C.) was carried out. After centrifugation (13,000 g, 10 min, 4° C.), the supernatant was removed, and the dried precipitate (total RNA) was dissolved in sterile water and cryopreserved at −80° C. until use.
(§2) Using a reverse transcription kit (PrimeScript RT reagent kit with gDNA Eraser, RR047A, TAKARA), degradation of DNA remaining in total RNA and reverse transcription reaction from RNA to complementary DNA (cDNA) were carried out. Next, cDNA derived from the target gene was amplified by quantitative real-time polymerase chain reaction (PCR) using primers specific for LL-37 or hBD3 gene. The relative expression levels of LL-37 and hBD3 genes were calculated using beta-actin as an internal reference gene.

Experiment [2] has as its system ICAM-1 protein in human gingival epithelial Ca9-22 cells. The experiment in a line: Effect of down-regulating expression of ICAM-1 induced by TNF-α (Western blot). As to conditions: co-treatment with TNF-α, 24 hours, FIG. 3. The protocol: Test solutions for evaluating the biological activities were prepared as follows. In evaluating the biological activities, all test solutions were prepared at the time of use. • (a) Approximately 1 mg of SAC and […] (cis:trans=15:85) were each precisely weighed and dissolved in 0.6 mL of purified water (10 mM). This solution was used as a stock solution and diluted appropriately to be subjected to the test. • (b) SAMC was dissolved in a culture medium for cell culture (containing 10% bovine serum albumin, […] penicillin, and 100 μg/mL streptomycin) (1 mM). This solution was used as a stock solution and diluted to be subjected to the test. (2) Cells for Evaluation Test Test cells (human gingival epithelial Ca9-22 cells) were purchased from the National Institute of Biomedical Innovation, Health and Nutrition. Immediately after purchasing, the culturing was initiated (5% CO2, 37° C.) Subculturing was carried out two or three times per week. […] A portion of the above protein supernatant was collected and the total protein concentration was calculated by BCA method. […] After reaction treatment, the proteins were washed with Tris-buffered saline three times, an HRP substrate was added thereto, and the luminescence intensity was detected by a luminoimage analyzer.

The subject of experiment [3] is LL-37 gene in human gingival epithelial Ca9-22 cells. The experiment in a line: Effect of promoting expression of LL-37 gene (quantitative real-time PCR). As to conditions: treatment for 24 hours, absence of HKPG, compared to untreated, FIG. 1. As for the experimental part: as §1
Test cells (human gingival epithelial Ca9-22 cells) were purchased from the National Institute of Biomedical Innovation, Health and Nutrition. […]
as §2

Experiment [4] has as its system IL-6 release from human gingival epithelial Ca9-22 cells. In words: Effect of reducing release of IL-6 induced by TNF-α (ELISA). The settings on record: co-treatment with TNF-α, 6 hours, FIGS. 4 and 5. The protocol:
Test solutions for evaluating the biological activities were prepared as follows. In evaluating the biological activities, all test solutions were prepared at the time of use. • (a) Approximately 1 mg of SAC and […] (cis:trans=15:85) were each precisely weighed and dissolved in 0.6 mL of purified water (10 mM). This solution was used as a stock solution and diluted appropriately to be subjected to the test. • (b) SAMC was dissolved in a culture medium for cell culture (containing 10% bovine serum albumin, […] penicillin, and 100 μg/mL streptomycin) (1 mM). This solution was used as a stock solution and diluted to be subjected to the test. (2) Cells for Evaluation Test Test cells (human gingival epithelial Ca9-22 cells) were purchased from the National Institute of Biomedical Innovation, Health and Nutrition. Immediately after purchasing, the culturing was initiated (5% CO2, 37° C.) Subculturing was carried out two or three times per week. […] IL-6 ELISA Ready-SET-Go! Kit was purchased from eBioscience, Inc. to measure the amount of IL-6 produced. […] A horseradish peroxidase (HRP)-labeled secondary antibody and chromogenic substrate were added thereto and then the absorbance was measured by using a plate reader. […] After completion of culturing, the supernatant was collected and the concentration of IL-6 was measured by ELISA.

Setting [5] is: 300 μM, presence of 10^7/mL HKPG (heat-sterilized Porphyromonas gingivalis), FIG. 2.
Setting [6] is: treatment for 24 hours, absence of HKPG.

Consider `CC=CSC[C@H](N)C(=O)O` [S1PC, S-1-propenylcysteine], for which the “expression level of hBD3 gene” value in experiment [1] (setting [5]) is listed as “significantly increased”; in experiment [1] (setting [6]), “no change”. In experiment [2], the “expression of ICAM-1 protein induced by TNF-α” value is listed as “concentration-dependently down-regulated”. For the same compound, in experiment [3], the “expression level of LL-37 gene” value was “significantly increased”.
Turning to `C=CCSC[C@H](N)C(=O)O` [SAC, S-allylcysteine], the “expression level of hBD3 gene” value was “significantly increased” in experiment [1] (setting [5]) and “no change” in experiment [1] (setting [6]). Also, the “expression level of LL-37 gene” value in experiment [3] is given as “significantly increased”. In addition, the “amount of released IL-6 induced by TNF-α” value in experiment [4] is “concentration-dependently reduced”.
As to `C=CCSSCC(N)C(=O)O` (stereo not drawn) [SAMC, S-allylmercaptocysteine], the “amount of released IL-6 induced by TNF-α” value in experiment [4] is listed as “concentration-dependently reduced”.
